Activity calls are given as the source filed them. The rule behind the calls is not given here.

This passage reports Activity, viability and inhibition results from ChEMBL document CHEMBL5500363, “Discovery of novel ocotillol derivatives modulating glucocorticoid receptor/NF-κB signaling for the treatment of sepsis” (Eur J Med Chem, 2024).

In data set [1] the test system is Mus musculus. Briefly: Upregulation of glucocorticoid receptor expression in liver of LPS-induced sepsis BALB/c mouse model at 7.5 to 30 mg/kg administered via gavage for 3 days followed by LPS treatment for 6 hrs by immunofluorescence analysis. The conditions noted are these: dose 7.5-30 mg/kg, time 78.0 hrs. Type of data set: functional, organism-based.
The nature of data set [2]: Cytotoxicity against mouse RAW264.7 cells assessed as cell viability at 40 uM incubated for 24 hrs by MTT assay relative to control. Particulars: read-out: Activity. Type of data set: toxicity, cell-based. On the technique in general: Tetrazolium assays rely on reduction of a dye to a coloured formazan, in cell work by metabolically active cells.
For data set [3], the system named is RAW264.7. The data set can be described thus: Inhibition of LPS-induced NO production in mouse RAW264.7 cells at 5 uM pretreated for 2 hrs followed by LPS stimulation for 24 hrs by Griess assay relative to control. The conditions noted are these: time 26 hrs. Type of data set: functional. (The Griess reaction detects nitrite, a stable product of nitric oxide.)

Data set [4] concerns Mus musculus. Briefly: Upregulation of glucocorticoid receptor expression in liver of LPS-induced sepsis BALB/c mouse model at 7.5 to 30 mg/kg administered via gavage for 3 days followed by LPS treatment for 6 hrs by Western blot analysis. Type of data set: functional, organism-based. Particulars: dose 7.5-30 mg/kg, time 78.0 hrs. On the technique in general: Immunoblotting shows a protein as a band on a membrane.

The target of data set [5] is T1, Glucocorticoid receptor (Mus musculus) (UniProt P06537).
T1 sequence (whole entry): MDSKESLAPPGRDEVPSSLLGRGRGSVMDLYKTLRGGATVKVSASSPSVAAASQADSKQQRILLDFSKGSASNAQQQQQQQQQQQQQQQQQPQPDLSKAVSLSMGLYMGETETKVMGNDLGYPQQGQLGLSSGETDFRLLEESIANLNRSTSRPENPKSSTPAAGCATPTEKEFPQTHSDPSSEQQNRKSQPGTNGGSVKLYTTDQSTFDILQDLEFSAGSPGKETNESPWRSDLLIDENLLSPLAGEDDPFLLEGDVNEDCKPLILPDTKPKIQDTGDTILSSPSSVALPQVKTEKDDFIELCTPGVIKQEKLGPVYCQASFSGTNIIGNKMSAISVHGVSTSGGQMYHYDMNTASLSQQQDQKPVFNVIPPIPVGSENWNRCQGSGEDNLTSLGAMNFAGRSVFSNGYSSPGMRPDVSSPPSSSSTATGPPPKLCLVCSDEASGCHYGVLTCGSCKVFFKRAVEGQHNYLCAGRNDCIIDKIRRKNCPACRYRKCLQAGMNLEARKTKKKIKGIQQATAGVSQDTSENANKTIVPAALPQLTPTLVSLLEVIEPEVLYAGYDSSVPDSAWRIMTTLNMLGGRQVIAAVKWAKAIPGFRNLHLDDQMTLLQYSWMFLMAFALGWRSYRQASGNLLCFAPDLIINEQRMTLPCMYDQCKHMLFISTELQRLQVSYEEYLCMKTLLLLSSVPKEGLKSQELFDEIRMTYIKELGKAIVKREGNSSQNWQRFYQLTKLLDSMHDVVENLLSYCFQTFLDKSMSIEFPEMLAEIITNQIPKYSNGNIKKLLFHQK
The data set can be described thus: Modulation of glucocorticoid receptor in LPS-treated mouse RAW264.7 cells assessed as protein translocation from cytoplasm to nucleus at 20 uM pretreated for 12 hrs followed by LPS stimulation for 2 hrs by immunofluorescence based analysis. Type of data set: subcellular. Particulars: filed as modulator, time 14.0 hrs.

For data set [6], the system named is Mus musculus. Briefly: Downregulation of p65 phosphorylation in liver of LPS-induced sepsis BALB/c mouse model at 7.5 to 30 mg/kg administered via gavage for 3 days followed by LPS treatment for 6 hrs by Western blot analysis. Type of data set: functional, organism-based. Particulars: dose 7.5-30 mg/kg, time 78.0 hrs.
Data set [7] deals with Mus musculus. Briefly: Anti-septic activity in LPS-induced sepsis BALB/c mouse assessed as reduction in serum CRP level at 7.5 to 30 mg/kg administered via gavage for 3 days followed by LPS treatment for 6 hrs. Type of data set: functional, organism-based. Particulars: dose 7.5-30 mg/kg, time 78.0 hrs.
Data set [8] relates to RAW264.7. Briefly: Anti-inflammatory activity in LPS-treated mouse RAW264.7 cells assessed as reversal of nuclear translocation of p65 at 20 uM pretreated for 2 hrs followed by LPS stimulation for 24 hrs by immunofluorescence analysis. Particulars: time 26.0 hrs. Type of data set: functional, cell-based.
The test system of data set [9] is RAW264.7. The data set can be described thus: Upregulation of glucocorticoid receptor mRNA expression in LPS-treated mouse RAW264.7 cells incubated for 24 hrs by qRT-PCR analysis. Type of data set: functional, cell-based.
In data set [10] the test system is RAW264.7. The data set can be described thus: Inhibition of LPS-induced NO production in mouse RAW264.7 cells at 20 uM pretreated for 2 hrs followed by LPS stimulation for 24 hrs by Griess assay relative to control. Type of data set: functional. Particulars: time 26 hrs.

The term inhibition denotes the percentage by which the read-out fell short of the control. In the case of `CC(C)(C)OC(=O)CCC(=O)Nc1nc2c(s1)C[C@]1(C)[C@H]3C[C@@H](O)[C@@H]4C([C@]5(C)CC[C@@H](C(C)(C)O)O5)CC[C@@]4(C)[C@]3(C)CC[C@H]1C2(C)C` (stereo not given in full), the result in [1], in data set [4], in data set [5], in data set [6], in data set [7] and in data set [8] was Active. In addition, in data set [9], the result was Active. For the same compound, in [2], the viability at 24 h, 40 µM was above 90%. In addition, the inhibition at 5 µM in data set [3] stood at 30.3%. Besides, in data set [10], the inhibition at 20 µM was determined as 86%.
